# “Also recorded” adds a separate entry of the source.
# Key:
# [1] = biological target: phosphodiesterase from rat adipocytes; parameters: method as in PMID 1384499; conditions: cited from earlier work
# [2] = test system: PDE isolated from the lung tumor xenograft cell line LXFL529L; parameters: method as in PMID 29113064; conditions: cited from earlier work
# [3] = test system: phosphodiesterase 3′,5′-cyclic nucleotide 5′nucleotidohydrolase; parameters: method as in PMID 18617377; conditions: 0.01%, diluted in dimethyl sulfoxide; cited from earlier work
# [4] = test system: PDE in human platelet lysates; parameters: method as in PMID 25247601; conditions: in vitro; cited from earlier work
# [5] = test system: PDE 1; parameters: method as in PMID 27558680; conditions: in vitro; cited from earlier work
# [6] = biological target: T1, PDE 3B (recombinant, EC 3.1.4.17) (Homo sapiens, UniProt Q13370); assay: cAMP-specific PDE activity assay (cell-free, radiochemical); format: biochemical; conditions: for IC50: mean ± SD, n = 3–4, read-out: IC50 of cyanidin and anthocyanins; for influence on PDE activity (in words): c = 25–2000 µM; for IC50 of single anthocyanins: given in µg/mL
# T1 construct: purchased Sigma Aldrich (St. Louis, MO, USA)
# Experimental: The inhibitory effect of each extract on PDE 3B was measured according to the method published by Pöch et al. with slight modifications. One hundred microliters (100 µL) of the sample and 20 µL of PDE 3B (200 Units/mL) were incubated for 15 min at 4°C. Afterwards, a 50 µL volume of cAMP Mix (30 mM Tris/HCl pH 7.4, 9 mM MgCl2, 3 mM 5′AMP, 3 µM cAMP, 2.6 µCi/mL [2,8-^3H]-cAMP) was added and the mixture incubated for 25 min at 37 °C to allow for reaction. […] Experiments were performed in triplicate, and IC50 values were determined after at least three independent experiments. The ranges of test concentrations of extracts and single substances were intentionally chosen to align with similar ranges used for previous studies (extracts < 600 µg/mL; ACs < 2000 µM) to facilitate comparison with previous experiments.
# [7] = test system: cytosolic PDE activity in HT29 cells; parameters: method as in PMID 15497183; conditions: cited from earlier work
# [8] = parameters: method as in PMID 22913378; conditions: cited from earlier work
# [9] = test system: human PDE 5A1; parameters: method as in PMID 15769121; conditions: cited from earlier work
# T1 sequence (Q13370 whole entry, species assumed): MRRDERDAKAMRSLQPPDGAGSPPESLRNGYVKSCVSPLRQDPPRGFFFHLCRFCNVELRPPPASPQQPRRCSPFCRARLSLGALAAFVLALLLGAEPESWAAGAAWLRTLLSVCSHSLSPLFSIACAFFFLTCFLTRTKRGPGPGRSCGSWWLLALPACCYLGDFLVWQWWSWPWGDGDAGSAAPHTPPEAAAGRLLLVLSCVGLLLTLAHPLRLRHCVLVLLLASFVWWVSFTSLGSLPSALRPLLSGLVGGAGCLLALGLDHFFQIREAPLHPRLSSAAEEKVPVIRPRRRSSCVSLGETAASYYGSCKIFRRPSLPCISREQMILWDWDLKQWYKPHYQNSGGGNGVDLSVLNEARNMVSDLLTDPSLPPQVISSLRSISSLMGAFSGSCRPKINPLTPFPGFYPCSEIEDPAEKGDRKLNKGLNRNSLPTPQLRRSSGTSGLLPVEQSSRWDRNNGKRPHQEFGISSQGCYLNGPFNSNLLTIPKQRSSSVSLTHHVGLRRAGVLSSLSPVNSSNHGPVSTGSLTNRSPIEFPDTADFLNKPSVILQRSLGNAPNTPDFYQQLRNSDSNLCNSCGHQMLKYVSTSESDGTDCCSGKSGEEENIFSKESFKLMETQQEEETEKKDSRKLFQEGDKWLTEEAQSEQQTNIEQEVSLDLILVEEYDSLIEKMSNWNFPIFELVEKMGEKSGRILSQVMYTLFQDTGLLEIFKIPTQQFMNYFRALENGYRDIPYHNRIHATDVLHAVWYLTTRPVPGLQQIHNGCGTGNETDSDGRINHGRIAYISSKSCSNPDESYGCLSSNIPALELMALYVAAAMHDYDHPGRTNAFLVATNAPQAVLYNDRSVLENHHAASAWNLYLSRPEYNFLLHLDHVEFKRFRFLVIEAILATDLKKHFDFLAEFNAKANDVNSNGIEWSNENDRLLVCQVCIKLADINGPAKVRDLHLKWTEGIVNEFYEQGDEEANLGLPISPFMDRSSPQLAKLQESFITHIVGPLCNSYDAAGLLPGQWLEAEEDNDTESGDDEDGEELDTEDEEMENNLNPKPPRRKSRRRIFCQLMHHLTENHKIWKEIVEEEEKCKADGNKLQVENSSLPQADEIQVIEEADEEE
structure (smiles),measurement,setting,value
CC(C)Cn1c(=O)n(C)c(=O)c2[nH]cnc21,IC50,[1],30 to 50 µM
"O=C(/C=C/c1ccc(O)c(O)c1)O[C@@H]1[C@H](O)C[C@@](O)(C(=O)O)C[C@H]1OC(=O)/C=C/c1ccc(O)c(O)c1 (stereo in doubt) [3,4-dicaffeoylquinic acid]",IC50,[2],> 1000 µM
O=c1c(O)c(-c2ccc(O)c(O)c2)oc2cc(O)cc(O)c12 [Quercetin],inhibitory potency relative to 3-isobutyl-2-methylxanthine (in words),[1],comparable to or greater than 3-isobutyl-2-methylxanthine
Cn1c(=O)c2c(ncn2C)n(C)c1=O [caffeine],PDE inhibition,[3],56%
same,IC50,[4],700 µM
O=C(/C=C/c1ccc(O)c(O)c1)O[C@@H]1C[C@](O)(C(=O)O)C[C@@H](O)[C@H]1O [chlorogenic acid],IC50,[5],36.7 ± 1.6 µM
"Oc1cc(O)c2cc(O)c(-c3ccc(O)c(O)c3)[o+]c2c1 [cyanidin, cyanidin chloride]",remaining activity at 11 µM,"[6]; c = 11 µM, read-out: rel. PDE 3B activity (% of solvent control)",94.7 ± 2.8%
same,remaining activity at 271 µM,"[6]; c = 271 µM, read-out: rel. PDE 3B activity (% of solvent control)",28.7 ± 6.5%
same,IC50,[6],105 ± 11 µM
same,IC50,[7],~175 µM
same,stability in cell culture medium (in words),[8],degraded rapidly
"OC[C@H]1O[C@@H](Oc2cc3c(O[C@@H]4O[C@H](CO)[C@@H](O)[C@H](O)[C@H]4O)cc(O)cc3[o+]c2-c2ccc(O)c(O)c2)[C@H](O)[C@@H](O)[C@@H]1O.[Cl-] [cyanidin-3,5-diglucoside, cyanidin-3,5-diglucoside chloride]",influence on PDE activity (in words),[6],inactive; also recorded: no effect
"Oc1cc(O)c2cc(O[C@@H]3OC[C@H](O)[C@H](O)[C@H]3O)c(-c3ccc(O)c(O)c3)[o+]c2c1.[Cl-] [cyanidin-3-arabinoside, cyanidin-3-arabinoside chloride]",rel. PDE activity (% of solvent control),[6]; c = 600 µM,32.3 ± 2.9%
same,IC50 of single anthocyanins,[6],108 ± 6 µg/mL
same,IC50,[6],257 ± 13 µM
"OC[C@H]1OC(Oc2cc3c(O)cc(O)cc3[o+]c2-c2ccc(O)c(O)c2)[C@H](O)[C@@H](O)[C@H]1O.[Cl-] (stereo partly drawn) [cyanidin-3-galactoside, cyanidin-3-galactoside chloride]",concentration below which no influence on PDE activity,[6],below 884 µM
same,rel. PDE activity (% of solvent control),[6]; c = 2000 µM,52.3 ± 13.7%
same,influence on PDE activity (in words),[6],little PDE inhibition
"OC[C@H]1O[C@@H](Oc2cc3c(O)cc(O)cc3[o+]c2-c2ccc(O)c(O)c2)[C@H](O)[C@@H](O)[C@@H]1O.[Cl-] [cyanidin-3-glucoside, cyanidin-3-glucoside chloride]",inhibition of PDE 3B,[6]; c = 600 µM,63%
same,rel. PDE activity (% of solvent control),[6]; c = 600 µM,around 40%
same,IC50 of single anthocyanins,[6],134 ± 25 µg/mL
same,IC50,[6],299 ± 56 µM
same,PDE inhibition,[3],99%
"C[C@@H]1O[C@@H](OC[C@H]2O[C@@H](Oc3cc4c(O)cc(O)cc4[o+]c3-c3ccc(O)c(O)c3)[C@H](O)[C@@H](O)[C@@H]2O)[C@H](O)[C@H](O)[C@H]1O.[Cl-] [cyanidin-3-rutinoside, cyanidin-3-rutinoside chloride]",influence on PDE activity (in words),[6],inactive
O=C(O)c1cc(O)c(O)c(O)c1 [gallic acid],IC50,[5],325 ± 3.62 µM
O=c1c(-c2ccc(O)cc2)coc2cc(O)cc(O)c12 [genistein],inhibitory potency relative to 3-isobutyl-2-methylxanthine (in words),[1],comparable to or greater than 3-isobutyl-2-methylxanthine
O=c1c(O)c(-c2ccc(O)cc2)oc2cc(O)cc(O)c12 [kaempferol],IC50,[1],58 µM
O=c1cc(-c2ccc(O)c(O)c2)oc2cc(O)cc(O)c12 [luteolin],IC50,[2],41 ± 10 µM
same,inhibitory potency relative to 3-isobutyl-2-methylxanthine (in words),[1],comparable to or greater than 3-isobutyl-2-methylxanthine
"COc1cc(-c2[o+]c3cc(O)cc(O)c3cc2O[C@@H]2O[C@H](CO)[C@@H](O)[C@H](O)[C@H]2O)cc(OC)c1O.[Cl-] [malvidin-3-glucoside, malvidin-3-glucoside chloride]",minimum rel. PDE activity (% of solvent control),[6]; c = 1328 µM,71.4 ± 9.7%
same,IC50,[9],35.4 µM
COc1cc(-c2[o+]c3cc(O)cc(O)c3cc2O)cc(OC)c1O [malvidin],IC50,[9],24.9 µM
O=c1c(O)c(-c2cc(O)c(O)c(O)c2)oc2cc(O)cc(O)c12 [myricetin],IC50,[1],125 µM
"COc1cc(-c2[o+]c3cc(O)cc(O)c3cc2O[C@@H]2O[C@H](CO)[C@@H](O)[C@H](O)[C@H]2O)ccc1O.[Cl-] [peonidin-3-glucoside, Peonidin-3-glucoside chloride]",concentration above which PDE activity significantly diminished,[6],above 55 µM
same,rel. PDE 3B activity (% of solvent control),[6]; c = 271 µM,comparable to those seen with caffeine
same,IC50 of single anthocyanins,[6],56 ± 20 µg/mL
same,IC50,[6],120 ± 44 µM
"COc1cc(-c2[o+]c3cc(O)cc(O)c3cc2O[C@@H]2O[C@H](CO)[C@@H](O)[C@H](O)[C@H]2O)cc(O)c1O.[Cl-] [petunidin-3-glucoside, petunidin-3-glucoside chloride]",rel. PDE activity (% of solvent control),[6]; c = 600 µM,around 40%
same,IC50,[6],448 ± 39 µM

# Source: PMC7555035, “In Vitro Inhibition of Phosphodiesterase 3B (PDE 3B) by Anthocyanin-Rich Fruit Juice Extracts and Selected Anthocyanins” (International Journal of Molecular Sciences, 2020)
